SMILES strings stand for the structures. Active and inactive are the calls of the source. Where only a bound is given, the exact number is not on record here.

The term EC50 denotes the concentration giving half of the maximal effect. For orientation: AC50 means the midpoint of the concentration-response curve, whichever way the signal moves. Usually CC50 stands for the concentration at which the toxic effect on the cells reaches its halfway point.

In assay [1] the target is T1, Rac GTPase-activating protein 1 (Homo sapiens, UniProt Q9H0H5).
T1 sequence (Q9H0H5 whole entry): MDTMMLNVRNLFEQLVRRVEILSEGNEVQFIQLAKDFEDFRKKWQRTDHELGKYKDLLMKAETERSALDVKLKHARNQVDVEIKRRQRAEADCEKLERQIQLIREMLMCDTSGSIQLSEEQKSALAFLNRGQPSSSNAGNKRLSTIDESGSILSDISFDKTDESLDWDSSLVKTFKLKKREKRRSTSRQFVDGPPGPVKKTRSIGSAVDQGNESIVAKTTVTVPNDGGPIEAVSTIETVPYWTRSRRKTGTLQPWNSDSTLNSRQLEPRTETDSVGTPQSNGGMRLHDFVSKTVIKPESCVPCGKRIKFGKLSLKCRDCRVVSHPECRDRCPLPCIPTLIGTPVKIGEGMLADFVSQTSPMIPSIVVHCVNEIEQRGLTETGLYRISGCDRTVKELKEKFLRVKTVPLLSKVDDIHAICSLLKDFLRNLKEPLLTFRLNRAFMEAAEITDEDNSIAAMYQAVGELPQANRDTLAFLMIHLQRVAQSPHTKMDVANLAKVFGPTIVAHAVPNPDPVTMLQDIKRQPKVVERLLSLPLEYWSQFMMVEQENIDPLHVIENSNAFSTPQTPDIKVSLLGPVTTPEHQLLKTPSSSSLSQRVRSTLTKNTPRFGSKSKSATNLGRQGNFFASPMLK
The assay can be described thus: blockers of MgcRacGAP-driven Rac1 GTP hydrolysis – biochemical, ADP Hunter fluorescence, primary and confirmatory, confirmation (AID 624330). Format: functional.

Assay [2] concerns the target DNA (cytosine-5)-methyltransferase 1 (Homo sapiens, UniProt P26358). Put plainly: inhibition of DNA methylation by DNMT1 – biochemical, fluorescent molecular beacon, confirmation (AID 602386). Format: functional.
The target in assay [3] is T2, RNA-binding protein pos-1 (Caenorhabditis elegans, UniProt G5EF15).
T2 sequence (G5EF15 whole entry): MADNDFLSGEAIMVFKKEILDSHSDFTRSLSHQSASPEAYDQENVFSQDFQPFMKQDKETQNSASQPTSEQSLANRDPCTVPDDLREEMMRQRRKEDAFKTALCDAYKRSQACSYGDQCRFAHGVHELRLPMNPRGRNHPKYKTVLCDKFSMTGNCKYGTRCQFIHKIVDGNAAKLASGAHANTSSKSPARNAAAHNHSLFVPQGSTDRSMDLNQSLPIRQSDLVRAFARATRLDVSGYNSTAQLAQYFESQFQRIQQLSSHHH
Put plainly: disruptors of C. elegans POS-1 RNA interaction – biochemical, fluorescence polarization, dose response (AID 1964).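 Also: purified POS-1 fused to maltose binding protein made in E. coli; potency of compounds blocking POS-1 binding to fluorescent RNA.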

Assay [4] has as its target T3, Low molecular weight phosphotyrosine protein phosphatase (Homo sapiens, UniProt P24666).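 Also: Dose-response confirmation assay measuring inhibition of LMPTP enzyme activity by fluorescence intensity read-out.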
T3 sequence (P24666 whole entry): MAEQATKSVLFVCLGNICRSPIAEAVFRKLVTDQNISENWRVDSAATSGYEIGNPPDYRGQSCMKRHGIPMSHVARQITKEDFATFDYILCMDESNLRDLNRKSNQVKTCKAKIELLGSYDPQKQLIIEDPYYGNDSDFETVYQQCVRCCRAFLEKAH
Format: functional. The following applies: read-out: IC50_Mean.

Assay [5] concerns the target T4, Sentrin-specific protease 8 (Homo sapiens, UniProt Q96LD8).
T4 sequence (Q96LD8 whole entry): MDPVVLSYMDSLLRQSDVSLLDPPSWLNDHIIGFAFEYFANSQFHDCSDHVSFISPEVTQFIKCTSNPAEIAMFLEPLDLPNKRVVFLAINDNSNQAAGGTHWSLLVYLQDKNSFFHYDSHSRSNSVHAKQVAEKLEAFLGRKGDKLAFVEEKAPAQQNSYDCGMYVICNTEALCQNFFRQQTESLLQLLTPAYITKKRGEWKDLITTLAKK
It counts as functional.

Assay [6] has as its target T4, Sentrin-specific protease 8. Format: functional. This is another data set of the same source.
The nature of assay [7]: general mammalian cell viability loss – activator set, cherry-pick, cytotoxicity control for miR-122 modulator project, dose response (AID 720690).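 Also: HEK293T human cells scored for general mammalian cytotoxicity.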 It counts as functional, cell-based.
Assay [8] in a line: activation of miR-122 Renilla sensor silencing – cell-based, Huh7 psiCHECK-miR122, Renilla luciferase, cherry-picked, dose response (AID 651956).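 Also: huh7 hepatoma cells stably carrying a psiCHECK-2 miR-122 sensor plasmid; renilla luciferase signal reporting endogenous miR-122 activity after 48 h compound exposure.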 It counts as functional.
In assay [9] the target is T5, DNA repair and recombination protein RAD54-like (Homo sapiens, UniProt Q92698).
T5 sequence (Q92698 whole entry): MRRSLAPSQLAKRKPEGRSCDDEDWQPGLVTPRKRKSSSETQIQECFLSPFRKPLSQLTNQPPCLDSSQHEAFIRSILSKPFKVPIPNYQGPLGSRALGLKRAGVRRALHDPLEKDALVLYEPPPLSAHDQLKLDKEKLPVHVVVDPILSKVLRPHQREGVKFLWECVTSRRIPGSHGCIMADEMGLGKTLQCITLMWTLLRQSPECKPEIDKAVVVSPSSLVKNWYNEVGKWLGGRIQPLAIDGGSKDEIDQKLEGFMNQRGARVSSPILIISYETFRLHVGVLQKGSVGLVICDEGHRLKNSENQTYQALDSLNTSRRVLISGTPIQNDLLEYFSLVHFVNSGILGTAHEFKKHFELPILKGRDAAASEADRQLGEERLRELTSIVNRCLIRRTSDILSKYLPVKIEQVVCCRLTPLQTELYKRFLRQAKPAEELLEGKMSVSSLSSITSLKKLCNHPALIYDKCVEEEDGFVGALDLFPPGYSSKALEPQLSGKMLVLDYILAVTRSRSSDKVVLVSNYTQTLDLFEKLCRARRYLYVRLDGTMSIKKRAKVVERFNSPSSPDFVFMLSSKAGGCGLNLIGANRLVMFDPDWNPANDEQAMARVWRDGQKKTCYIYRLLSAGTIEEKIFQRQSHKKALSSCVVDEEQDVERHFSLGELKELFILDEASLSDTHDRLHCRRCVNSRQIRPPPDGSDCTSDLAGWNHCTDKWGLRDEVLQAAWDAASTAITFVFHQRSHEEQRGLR
The assay can be described thus: RAD54 Holliday junction migration blockers – biochemical, fluorescence, cherry-picked samples, dose series, confirmation (AID 651657). It counts as functional.

Assay [10] deals with T6, DNA repair protein RAD52 homolog (Homo sapiens, UniProt P43351).
T6 sequence (P43351 whole entry): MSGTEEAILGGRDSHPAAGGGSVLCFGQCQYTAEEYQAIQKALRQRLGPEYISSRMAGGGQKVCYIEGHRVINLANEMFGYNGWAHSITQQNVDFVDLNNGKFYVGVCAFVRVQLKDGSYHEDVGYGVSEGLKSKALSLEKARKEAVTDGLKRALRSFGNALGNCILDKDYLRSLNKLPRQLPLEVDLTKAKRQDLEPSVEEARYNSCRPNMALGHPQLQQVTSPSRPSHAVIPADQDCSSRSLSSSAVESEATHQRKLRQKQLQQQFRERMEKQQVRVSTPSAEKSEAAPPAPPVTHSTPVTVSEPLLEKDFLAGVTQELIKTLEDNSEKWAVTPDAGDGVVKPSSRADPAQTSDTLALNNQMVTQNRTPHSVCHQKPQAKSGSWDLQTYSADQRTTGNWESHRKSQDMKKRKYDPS
It counts as functional, biochemical.

The target of assay [11] is T7, Microphthalmia-associated transcription factor (Homo sapiens, UniProt O75030).
T7 sequence (O75030 whole entry): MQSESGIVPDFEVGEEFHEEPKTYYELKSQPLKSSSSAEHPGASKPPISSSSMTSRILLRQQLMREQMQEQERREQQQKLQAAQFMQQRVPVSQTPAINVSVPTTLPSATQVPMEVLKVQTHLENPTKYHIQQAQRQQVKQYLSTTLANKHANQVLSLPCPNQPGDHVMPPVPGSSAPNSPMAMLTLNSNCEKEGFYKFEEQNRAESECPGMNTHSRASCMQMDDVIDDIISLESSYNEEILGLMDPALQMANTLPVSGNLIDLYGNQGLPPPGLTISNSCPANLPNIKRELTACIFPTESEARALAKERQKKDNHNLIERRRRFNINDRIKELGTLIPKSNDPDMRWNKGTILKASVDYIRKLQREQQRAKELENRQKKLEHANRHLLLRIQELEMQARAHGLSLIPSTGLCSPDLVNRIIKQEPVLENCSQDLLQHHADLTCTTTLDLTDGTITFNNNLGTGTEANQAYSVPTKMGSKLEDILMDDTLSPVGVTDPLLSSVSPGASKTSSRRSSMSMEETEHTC
The assay can be described thus: reducers of TRPM1 reporter luminescence, concentration series – cell-based, SK-MEL-5, cherry-picked, set 3, MITF inhibitor project, dose response (AID 493073).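 Also: SK-MEL-5 melanoma cells with luciferase driven by the MITF target TRPM1 promoter.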 Format: functional.

Assay [12] addresses Cytochrome P450 3A4 (Homo sapiens, UniProt P08684).
The nature of assay [13]: HIV-1 Vif–A3G interaction blockers – biochemical, TR-FRET, GST-Vif 1-94, biotin-A3G peptide, dose response retest, primary screen (AID 1117319).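 Also: TR-FRET signal of purified GST-Vif binding a biotinylated A3G peptide; inhibitors lower the FRET signal by blocking Vif and A3G binding.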 It counts as functional. (Time-resolved FRET reads energy transfer from a long-lived donor to a nearby acceptor.)
For assay [14], the target named is T8, Protein skinhead-1 (Caenorhabditis elegans, UniProt P34707).
T8 sequence (P34707 whole entry): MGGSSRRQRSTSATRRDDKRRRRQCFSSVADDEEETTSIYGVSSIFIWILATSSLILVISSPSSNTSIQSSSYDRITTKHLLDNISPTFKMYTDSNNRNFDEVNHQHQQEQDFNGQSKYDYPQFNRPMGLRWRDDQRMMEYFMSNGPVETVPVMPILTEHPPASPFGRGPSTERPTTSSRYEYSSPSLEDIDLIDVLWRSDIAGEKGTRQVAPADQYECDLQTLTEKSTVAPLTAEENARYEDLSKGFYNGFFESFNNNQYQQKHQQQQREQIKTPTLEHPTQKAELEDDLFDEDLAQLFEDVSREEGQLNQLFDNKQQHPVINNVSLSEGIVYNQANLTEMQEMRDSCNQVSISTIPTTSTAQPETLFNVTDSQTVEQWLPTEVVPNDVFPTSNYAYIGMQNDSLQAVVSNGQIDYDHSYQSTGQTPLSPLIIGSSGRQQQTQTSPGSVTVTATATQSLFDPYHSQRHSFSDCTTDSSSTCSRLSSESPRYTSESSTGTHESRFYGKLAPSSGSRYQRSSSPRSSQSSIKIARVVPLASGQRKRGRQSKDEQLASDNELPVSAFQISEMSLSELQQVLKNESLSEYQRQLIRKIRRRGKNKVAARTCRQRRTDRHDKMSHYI
It counts as functional.

The nature of assay [15]: viability loss in HeLa cells – cytotoxicity control for MgcRacGAP inhibitor project, dose response (AID 624300). Format: functional.
The target of assay [16] is T9, Hepatocyte nuclear factor 4-alpha (Homo sapiens, UniProt P41235).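 Also: biochemical luminescence-based dose-response counterscreen measuring inhibition of HNF4 dimerization, run alongside a screen for blockers of ABHD5–perilipin-5 interaction; split luciferase complementation of HNF4 fusion proteins in cell lysate measuring dimerization.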
T9 sequence (P41235 whole entry): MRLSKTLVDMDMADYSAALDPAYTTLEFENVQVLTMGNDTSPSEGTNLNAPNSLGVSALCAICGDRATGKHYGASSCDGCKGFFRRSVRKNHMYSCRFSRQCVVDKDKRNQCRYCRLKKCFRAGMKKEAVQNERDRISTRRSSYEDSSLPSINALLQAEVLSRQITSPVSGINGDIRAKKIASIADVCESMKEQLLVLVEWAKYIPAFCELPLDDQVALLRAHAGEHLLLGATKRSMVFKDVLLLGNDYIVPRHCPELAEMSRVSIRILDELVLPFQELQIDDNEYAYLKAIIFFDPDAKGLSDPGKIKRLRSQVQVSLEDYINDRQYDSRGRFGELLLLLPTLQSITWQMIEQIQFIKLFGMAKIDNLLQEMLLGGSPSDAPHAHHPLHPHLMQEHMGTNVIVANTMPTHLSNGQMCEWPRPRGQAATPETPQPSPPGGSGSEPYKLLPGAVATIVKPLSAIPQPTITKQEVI
Format: functional, cell-based.

Sequence of DNA (cytosine-5)-methyltransferase 1 (P26358 whole entry): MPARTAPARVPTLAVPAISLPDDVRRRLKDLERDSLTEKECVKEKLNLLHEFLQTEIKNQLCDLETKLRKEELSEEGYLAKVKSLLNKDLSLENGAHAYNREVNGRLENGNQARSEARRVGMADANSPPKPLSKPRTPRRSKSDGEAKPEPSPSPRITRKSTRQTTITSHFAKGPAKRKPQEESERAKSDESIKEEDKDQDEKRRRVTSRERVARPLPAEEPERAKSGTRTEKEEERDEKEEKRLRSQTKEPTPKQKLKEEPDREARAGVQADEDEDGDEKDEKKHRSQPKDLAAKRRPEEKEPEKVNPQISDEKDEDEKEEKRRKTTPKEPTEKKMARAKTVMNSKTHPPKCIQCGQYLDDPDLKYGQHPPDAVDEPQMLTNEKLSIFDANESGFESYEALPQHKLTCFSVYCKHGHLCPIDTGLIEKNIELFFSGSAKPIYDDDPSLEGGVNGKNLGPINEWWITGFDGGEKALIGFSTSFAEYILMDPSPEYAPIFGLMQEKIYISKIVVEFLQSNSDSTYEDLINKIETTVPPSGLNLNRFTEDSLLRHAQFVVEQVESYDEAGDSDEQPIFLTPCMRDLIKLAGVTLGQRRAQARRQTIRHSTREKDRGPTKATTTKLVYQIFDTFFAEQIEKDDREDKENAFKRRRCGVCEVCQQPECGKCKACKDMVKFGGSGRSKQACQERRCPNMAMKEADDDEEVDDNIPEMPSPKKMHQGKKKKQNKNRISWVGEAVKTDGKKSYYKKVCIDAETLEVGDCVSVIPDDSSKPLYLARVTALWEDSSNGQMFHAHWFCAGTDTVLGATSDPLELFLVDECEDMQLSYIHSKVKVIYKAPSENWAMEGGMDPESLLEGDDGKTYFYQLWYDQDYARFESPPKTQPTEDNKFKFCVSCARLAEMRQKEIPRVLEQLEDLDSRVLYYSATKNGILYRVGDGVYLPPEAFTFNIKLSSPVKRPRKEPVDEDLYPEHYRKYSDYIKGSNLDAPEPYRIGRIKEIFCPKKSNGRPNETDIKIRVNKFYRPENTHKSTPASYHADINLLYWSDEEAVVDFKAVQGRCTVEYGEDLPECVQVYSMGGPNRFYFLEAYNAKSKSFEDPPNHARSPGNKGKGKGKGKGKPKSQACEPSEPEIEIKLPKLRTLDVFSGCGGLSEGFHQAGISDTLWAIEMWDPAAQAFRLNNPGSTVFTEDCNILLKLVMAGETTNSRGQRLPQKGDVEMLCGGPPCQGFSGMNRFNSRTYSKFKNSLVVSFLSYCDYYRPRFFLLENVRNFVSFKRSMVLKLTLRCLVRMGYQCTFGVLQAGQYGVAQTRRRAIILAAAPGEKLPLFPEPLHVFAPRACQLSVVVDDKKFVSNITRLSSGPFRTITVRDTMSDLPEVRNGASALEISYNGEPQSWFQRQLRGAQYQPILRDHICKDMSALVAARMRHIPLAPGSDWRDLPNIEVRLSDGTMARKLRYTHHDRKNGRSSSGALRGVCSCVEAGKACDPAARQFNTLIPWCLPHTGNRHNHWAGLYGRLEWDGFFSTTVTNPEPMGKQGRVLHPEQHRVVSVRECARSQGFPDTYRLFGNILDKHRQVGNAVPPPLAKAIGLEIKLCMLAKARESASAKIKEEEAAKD
Sequence of Cytochrome P450 3A4 (P08684 whole entry): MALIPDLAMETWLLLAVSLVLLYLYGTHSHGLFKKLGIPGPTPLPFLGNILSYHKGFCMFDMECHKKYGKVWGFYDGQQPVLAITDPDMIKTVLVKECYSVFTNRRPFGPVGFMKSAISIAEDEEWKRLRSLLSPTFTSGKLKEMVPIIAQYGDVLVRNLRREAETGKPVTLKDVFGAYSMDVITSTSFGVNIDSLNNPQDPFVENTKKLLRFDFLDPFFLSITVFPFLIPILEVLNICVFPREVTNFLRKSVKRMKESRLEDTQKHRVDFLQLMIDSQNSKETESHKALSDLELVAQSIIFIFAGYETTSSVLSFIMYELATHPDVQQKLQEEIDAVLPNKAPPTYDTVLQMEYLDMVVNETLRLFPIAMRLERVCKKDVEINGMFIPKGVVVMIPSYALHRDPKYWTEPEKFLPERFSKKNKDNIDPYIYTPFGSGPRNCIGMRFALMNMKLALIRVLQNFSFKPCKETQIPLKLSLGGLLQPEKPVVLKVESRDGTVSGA

`O=C1NC(=S)N(c2ccccc2)C(=O)/C1=C/c1ccco1`: the IC50 was 8.35 µM (active) in [1] and 0.811 µM (active) in assay [2]. In addition, the EC50 in assay [3] was 32.7 µM (active).

Regarding `O=c1cc(CN2CCCCCCC2)c2ccccc2o1`, the IC50 in assay [4] is 41.5 µM (inactive).

For `O=C(O)/C=C/C(=O)Nc1ccc(O)cc1`, the values for the IC50 in assay [5] and in assay [6] were 10.6 µM (active) and 16.2 µM (active), respectively.

With `C[C@H]1CN([C@@H](C)CO)C(=O)c2cc(NC(=O)Nc3ccc(C(F)(F)F)cc3)ccc2O[C@H]1CN(C)CC1CCCCC1`, the AC50 was 18.7 µM (active) in assay [7] and 8.8 µM (active) in assay [8].

Turning to `N=c1c(C(=O)NCc2ccco2)cc2c(=O)n3ccccc3nc2n1Cc1ccccc1`, in assay [4], the IC50 was 28.4 µM (inactive).

Regarding `Cc1ccc(-c2nc(C(=O)NCCCN(C)C)cc3c2[nH]c2ccccc23)cc1`, the half-maximal activity concentration (AC50) in [9] is 10.9 µM (active); in [10], 2.77 µM (active); in [11], 11.2 µM (active).

Take `CN1CCN(c2nc(-c3cccnc3)nc3ccccc23)CC1`: the AC50 in [9] is 21.1 µM (active); in [12], 25.1 µM (inconclusive). In addition, the IC50 in assay [13] was > 100 µM (active).

For the compound `CC1CCCCN1Cc1c(O)ccc2c(O)c(-c3nc4ccccc4s3)c(=N)oc12` (stereo unspecified), the IC50 in assay [14] was 4.74 µM (active). Further, in [15], the CC50 was 93.1 µM (active).

Turning to `CCCCCNC(=O)C(c1ccc(OC)cc1)n1c(=O)c(-c2ccco2)nc2ccccc21` (stereo unspecified), the IC50 in assay [16] is 3.07 µM (active).

Turning to `c1ccc(Nc2cc(Nc3ccccc3)[nH]n2)cc1`, the IC50 in [1] was 50.9 µM (active). For the same compound, the CC50 in assay [15] is 100 µM (active).

In the case of `Cc1cccc(C)c1OCc1cn(CC(=O)c2ccc(O)cc2)nn1`, in [16], the IC50 was 4.78 µM (active).

The record behind these values is ChEMBL document CHEMBL1201862, “PubChem BioAssay data set” (2004).
